Data: PMC11649115, “In vitro safety evaluation of dopamine D3R antagonist, R-VK4-116, as a potential medication for the treatment of opioid use disorder” (PLOS ONE, 2024)

Key:
cardiovascular effects = settings: dogs ref 4, 9; cited from earlier work
CYP2C8 [1] = target: T1, CYP2C8 (Homo sapiens, UniProt P10632); test: in vitro; settings: microsomes
T1 sequence (P10632 1-490): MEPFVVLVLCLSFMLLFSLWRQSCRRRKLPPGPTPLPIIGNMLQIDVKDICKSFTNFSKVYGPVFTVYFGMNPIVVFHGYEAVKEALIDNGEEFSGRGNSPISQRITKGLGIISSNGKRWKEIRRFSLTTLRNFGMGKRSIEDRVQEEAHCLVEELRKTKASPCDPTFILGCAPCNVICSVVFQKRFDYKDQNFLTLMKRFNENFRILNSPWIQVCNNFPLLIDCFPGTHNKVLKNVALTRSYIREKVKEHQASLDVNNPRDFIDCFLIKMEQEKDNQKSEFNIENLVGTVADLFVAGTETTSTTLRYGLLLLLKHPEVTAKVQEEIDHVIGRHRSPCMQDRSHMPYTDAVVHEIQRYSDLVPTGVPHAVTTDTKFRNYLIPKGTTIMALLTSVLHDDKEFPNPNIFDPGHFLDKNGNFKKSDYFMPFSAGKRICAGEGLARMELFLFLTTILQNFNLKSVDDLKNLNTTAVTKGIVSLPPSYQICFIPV

CYP1A2 [2] = target: T2, CYP1A2 (Homo sapiens, UniProt P05177); test: CYP inhibition in human liver microsomes; settings: human, human liver microsomes, probe phenacetin
T2 sequence (P05177 1-516): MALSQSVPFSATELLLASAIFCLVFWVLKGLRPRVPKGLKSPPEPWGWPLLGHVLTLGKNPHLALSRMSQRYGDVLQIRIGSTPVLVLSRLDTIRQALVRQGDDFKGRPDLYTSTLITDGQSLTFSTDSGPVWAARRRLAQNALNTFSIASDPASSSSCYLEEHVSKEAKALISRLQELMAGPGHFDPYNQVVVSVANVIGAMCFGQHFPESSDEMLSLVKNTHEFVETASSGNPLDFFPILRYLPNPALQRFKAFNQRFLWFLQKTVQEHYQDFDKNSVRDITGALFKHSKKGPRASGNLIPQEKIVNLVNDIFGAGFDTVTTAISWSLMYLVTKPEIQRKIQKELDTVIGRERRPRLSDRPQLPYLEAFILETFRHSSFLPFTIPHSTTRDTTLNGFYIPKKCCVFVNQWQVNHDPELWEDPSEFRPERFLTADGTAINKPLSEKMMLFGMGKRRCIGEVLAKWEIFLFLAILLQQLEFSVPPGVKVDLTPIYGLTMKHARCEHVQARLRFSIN

CYP2B6 = target: T3, CYP2B6 (Homo sapiens, UniProt P20813); test: CYP inhibition in human liver microsomes; settings: human, human liver microsomes, probe bupropion
T3 sequence (P20813 1-491): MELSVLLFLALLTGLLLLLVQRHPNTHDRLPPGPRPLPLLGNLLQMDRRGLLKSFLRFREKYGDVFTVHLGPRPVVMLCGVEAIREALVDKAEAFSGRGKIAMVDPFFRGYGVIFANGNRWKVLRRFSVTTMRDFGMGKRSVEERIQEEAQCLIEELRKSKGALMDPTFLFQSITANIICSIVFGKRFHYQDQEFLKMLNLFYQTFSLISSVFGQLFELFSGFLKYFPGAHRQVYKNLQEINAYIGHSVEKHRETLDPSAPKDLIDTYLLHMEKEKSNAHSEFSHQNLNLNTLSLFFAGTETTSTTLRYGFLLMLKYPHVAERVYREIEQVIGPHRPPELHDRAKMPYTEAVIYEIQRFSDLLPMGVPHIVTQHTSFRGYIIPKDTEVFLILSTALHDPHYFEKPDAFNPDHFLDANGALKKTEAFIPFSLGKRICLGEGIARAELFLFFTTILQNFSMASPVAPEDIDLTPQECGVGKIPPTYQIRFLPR

CYP2C19 = CYP2C19 (Homo sapiens, UniProt P33261); test: CYP inhibition in human liver microsomes; settings: human, human liver microsomes, probe mephenytoin
CYP3A4 = CYP3A4 (Homo sapiens, UniProt P08684); test: in vitro; settings: microsomes
CYP2C9 = CYP2C9 (Homo sapiens, UniProt P11712); test: CYP inhibition in human liver microsomes; settings: human, human liver microsomes, probe diclofenac
CYP2D6 = CYP2D6 (Homo sapiens, UniProt P10635); test: CYP inhibition in human liver microsomes; settings: human, human liver microsomes, probe bufuralol
CYP2C8 [3] = target: T1, CYP2C8; test: CYP inhibition in human liver microsomes; settings: human, human liver microsomes, probe paclitaxel
CYP1A2 [4] = target: T2, CYP1A2; test: in vitro; settings: microsomes
MATE1 = target: T4, MATE1 (Homo sapiens, UniProt Q96FL8); test: Transporter mediated assay (substrate/inhibitor), MDCK-II cells; format: in vitro ADME; settings: human, polarized monolayer of MDCK-II cells expressing MATE1; MATE1, No BSA, 100 μM
T4 construct: expressed in transfected cells; host or cells: MDCK-II cells
T4 sequence (Q96FL8 1-570): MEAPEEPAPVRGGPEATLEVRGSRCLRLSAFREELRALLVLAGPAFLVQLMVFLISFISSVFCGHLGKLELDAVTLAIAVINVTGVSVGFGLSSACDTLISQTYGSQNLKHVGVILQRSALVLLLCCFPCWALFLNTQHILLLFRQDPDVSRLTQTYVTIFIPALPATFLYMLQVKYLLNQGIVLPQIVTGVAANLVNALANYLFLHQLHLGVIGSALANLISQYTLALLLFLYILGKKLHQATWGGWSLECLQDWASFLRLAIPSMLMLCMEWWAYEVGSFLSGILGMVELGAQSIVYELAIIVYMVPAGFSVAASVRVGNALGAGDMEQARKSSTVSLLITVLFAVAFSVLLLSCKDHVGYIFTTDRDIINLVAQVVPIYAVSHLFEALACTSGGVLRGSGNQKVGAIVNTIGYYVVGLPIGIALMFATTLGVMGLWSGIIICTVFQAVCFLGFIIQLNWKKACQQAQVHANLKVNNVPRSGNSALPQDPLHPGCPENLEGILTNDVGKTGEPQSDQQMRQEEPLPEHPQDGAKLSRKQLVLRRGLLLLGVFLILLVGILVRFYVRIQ

MATE2-K = target: T5, MATE2-K (Homo sapiens, UniProt Q86VL8); test: as above; format: in vitro ADME; settings: human, polarized monolayer of MDCK-II cells expressing MATE2-K, No BSA, 100 μM
T5 construct: expressed in transfected cells; host or cells: MDCK-II cells

[5] = CYP activity (% of Control) 3A4 (Midazolam)
[6] = CYP activity (% of Control) 3A4 (Testosterone)

CYP3A4, sequence (P08684 2-503): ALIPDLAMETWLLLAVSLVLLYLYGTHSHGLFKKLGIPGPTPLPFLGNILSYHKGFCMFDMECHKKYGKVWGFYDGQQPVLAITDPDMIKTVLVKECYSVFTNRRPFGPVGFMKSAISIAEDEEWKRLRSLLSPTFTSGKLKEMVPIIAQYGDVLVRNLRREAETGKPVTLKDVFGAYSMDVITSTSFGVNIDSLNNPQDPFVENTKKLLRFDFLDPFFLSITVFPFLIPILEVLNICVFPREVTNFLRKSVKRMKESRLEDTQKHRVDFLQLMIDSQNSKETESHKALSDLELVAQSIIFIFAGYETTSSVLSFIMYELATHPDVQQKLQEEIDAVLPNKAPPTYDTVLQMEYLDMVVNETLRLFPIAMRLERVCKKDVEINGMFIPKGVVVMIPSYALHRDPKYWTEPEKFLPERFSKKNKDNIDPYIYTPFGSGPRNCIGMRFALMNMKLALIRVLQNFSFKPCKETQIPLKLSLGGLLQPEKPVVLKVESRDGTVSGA
CYP2C19, sequence (P33261 whole entry): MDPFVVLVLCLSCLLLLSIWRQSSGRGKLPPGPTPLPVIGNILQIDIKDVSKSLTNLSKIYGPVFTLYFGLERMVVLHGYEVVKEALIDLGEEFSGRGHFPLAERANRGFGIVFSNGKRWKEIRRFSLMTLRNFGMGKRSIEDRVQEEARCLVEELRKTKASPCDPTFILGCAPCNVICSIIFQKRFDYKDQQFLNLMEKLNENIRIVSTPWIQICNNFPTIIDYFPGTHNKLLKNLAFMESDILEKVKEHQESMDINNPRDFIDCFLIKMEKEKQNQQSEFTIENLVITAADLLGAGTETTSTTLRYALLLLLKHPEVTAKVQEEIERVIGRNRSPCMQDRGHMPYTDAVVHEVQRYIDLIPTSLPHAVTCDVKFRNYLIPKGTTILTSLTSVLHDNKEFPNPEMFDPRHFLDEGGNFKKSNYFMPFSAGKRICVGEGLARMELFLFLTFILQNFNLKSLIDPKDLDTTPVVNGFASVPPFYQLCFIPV
CYP2D6, sequence (P10635 whole entry): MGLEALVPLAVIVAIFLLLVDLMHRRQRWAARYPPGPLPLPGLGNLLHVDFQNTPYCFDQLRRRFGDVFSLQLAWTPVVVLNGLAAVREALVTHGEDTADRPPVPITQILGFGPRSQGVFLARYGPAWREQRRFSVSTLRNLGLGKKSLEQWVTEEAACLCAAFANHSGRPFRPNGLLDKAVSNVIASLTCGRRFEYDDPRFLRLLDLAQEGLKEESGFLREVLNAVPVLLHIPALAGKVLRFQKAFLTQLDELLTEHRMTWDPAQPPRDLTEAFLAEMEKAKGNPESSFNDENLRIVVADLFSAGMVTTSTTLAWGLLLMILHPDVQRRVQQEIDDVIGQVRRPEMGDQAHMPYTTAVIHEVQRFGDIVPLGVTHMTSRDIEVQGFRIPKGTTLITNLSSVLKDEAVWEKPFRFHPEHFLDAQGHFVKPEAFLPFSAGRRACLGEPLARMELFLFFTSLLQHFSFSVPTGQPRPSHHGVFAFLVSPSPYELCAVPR
CYP2C9, sequence (P11712 whole entry): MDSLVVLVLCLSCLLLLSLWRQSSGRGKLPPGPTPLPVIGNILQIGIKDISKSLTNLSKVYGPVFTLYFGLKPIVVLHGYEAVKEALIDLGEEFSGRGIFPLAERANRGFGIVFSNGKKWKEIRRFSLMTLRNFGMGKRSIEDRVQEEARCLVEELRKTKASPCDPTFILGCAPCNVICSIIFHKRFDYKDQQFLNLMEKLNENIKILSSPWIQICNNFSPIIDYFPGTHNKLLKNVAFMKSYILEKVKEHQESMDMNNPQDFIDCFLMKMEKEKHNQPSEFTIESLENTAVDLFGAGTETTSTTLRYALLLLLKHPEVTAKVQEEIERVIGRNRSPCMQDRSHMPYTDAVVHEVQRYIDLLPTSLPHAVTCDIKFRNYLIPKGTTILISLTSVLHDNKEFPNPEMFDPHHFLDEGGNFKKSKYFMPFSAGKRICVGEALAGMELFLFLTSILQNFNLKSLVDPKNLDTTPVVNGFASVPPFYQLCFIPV
T5 sequence (Q86VL8 1-566 isoform Q86VL8-3): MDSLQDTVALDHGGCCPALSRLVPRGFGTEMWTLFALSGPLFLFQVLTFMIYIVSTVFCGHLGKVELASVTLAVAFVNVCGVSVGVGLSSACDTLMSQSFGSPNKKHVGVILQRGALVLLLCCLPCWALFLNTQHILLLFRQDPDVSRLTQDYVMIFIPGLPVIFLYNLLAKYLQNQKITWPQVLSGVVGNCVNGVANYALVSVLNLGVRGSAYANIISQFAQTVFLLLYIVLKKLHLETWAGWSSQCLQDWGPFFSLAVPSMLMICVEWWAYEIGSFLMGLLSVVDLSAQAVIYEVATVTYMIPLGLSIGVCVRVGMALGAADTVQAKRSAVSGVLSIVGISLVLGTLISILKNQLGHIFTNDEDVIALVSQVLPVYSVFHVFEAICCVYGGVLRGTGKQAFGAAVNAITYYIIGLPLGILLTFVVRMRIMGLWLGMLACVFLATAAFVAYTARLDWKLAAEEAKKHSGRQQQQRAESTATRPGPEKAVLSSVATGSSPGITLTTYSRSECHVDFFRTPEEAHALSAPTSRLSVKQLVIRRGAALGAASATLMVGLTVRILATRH

activity at 20 min, 10 µM (CYP2C8 [1]) [%] | activity at 20 min, 10 µM (CYP1A2 [2]) [%] | activity at 20 min, 10 µM (CYP2B6) [%] | activity at 20 min, 10 µM (CYP2C19) [%] | activity at 20 min, 10 µM (CYP3A4; [5]) [%] | activity at 20 min, 10 µM (CYP3A4; [6]) [%] | activity at 20 min, 10 µM (CYP2C9) [%] | activity at 20 min, 10 µM (CYP2D6) [%] | activity at 20 min, 10 µM (CYP2C8 [3]) [%] | activity at 20 min, 10 µM (CYP1A2 [4]) [%] | inhibition at 100 µM (MATE1) [%] | inhibition at 100 µM (MATE2-K) [%] | SMILES | cardiovascular effect in combination with cocaine (cardiovascular effects)
– | – | – | – | – | – | – | – | – | – | – | – | Cc1ncoc1-c1nnc(SCCCN2C[C@@H]3C[C@]3(c3ccc(C(F)(F)F)cc3F)C2)n1C [GSK598,809] | hypertension
10.3 ± 0.7 | 91 ± 1.8 | 90.5 ± 1.3 | 105 ± 2 | 93.8 ± 3.9 | 93.1 ± 2 | 75.4 ± 0.9 | 88.4 ± 1.8 | – | – | – | – | CC(C)(O)c1ccccc1CC[C@@H](SCC1(CC(=O)O)CC1)c1cccc(/C=C/c2ccc3ccc(Cl)cc3n2)c1 [Montelukast] | –
– | – | 97.3 ± 2.9 | 94.3 ± 8.1 | 97.2 ± 4.7 | 95.1 ± 5.6 | 96.3 ± 1.4 | 94.7 ± 1.1 | 89.9 ± 1.4 | 49 ± 5.3 | – | – | Cc1nc2c([nH]1)c(=O)n(C)c(=O)n2Cc1ccco1 [Furafylline] | –
– | – | – | – | – | – | – | – | – | – | 99.3 ± 0.22 | 95.9 ± 0.59 | CN/C(=N/CCSCc1nc[nH]c1C)NC#N [cimetidine, reference compound] | –
